The values below are quoted from earlier work in patent US11596597B2, “Depot formulation” (Cipla Limited, priority 2018, dated 2023).

For this data set the following is noted: stated in words, no test described.

With “7,8,9,10-tetrahydro-6,10-methano-6H-pyrazino [2,3-h] [3]-benzazepine, (2R, 3R)-2,3-dihydroxybutanedioate [Varenicline salt]”, the solubility in water result is “freely soluble”.

Regarding `c1cnc2cc3c(cc2n1)[C@@H]1CNC[C@H]3C1` [varenicline base], the solubility in water entry is “practically insoluble”.
